Like-named read-outs stand apart in the source and are kept apart here.
Legend:
Assay type in all cases: cell-based, human
HeLa cells = assay: Apoptosis detection by Annexin V-PE and 7-AAD staining, flow cytometry; details: 5 and 10 µM, 48 h
Protocol: In order to determine whether the anti-proliferative effects of 11, 12 and 13 were associated with their ability to induce apoptosis in HeLa cells, the induction of phosphatidylserine externalization by compounds 11, 12 and 13 was examined by flow cytometric analysis. The cells were treated with 2.5, 5 and 10 µM concentrations of 11, 12 and 13 for 24 and 48 h and stained with Annexin V-PE and 7-AAD. […] After 24 h of treatment, a significant increase in the early apoptotic population of cells was visible starting from the concentration of 5 µM.
Detection of apoptosis by Annexin V-PE and 7-AAD staining: Apoptosis induction was detected with an Annexin V-PE Apoptosis Detection Kit I (BD Biosciences, Belgium) according to the manufacturer’s instructions. The cells were treated with 11–13 (2.5, 5 and 10 µM) for 24 and 48 h. Following treatment, the cells were collected and stained with Annexin V-phycoerythrin (PE) and 7-amino-actinomycin (7-AAD) in Annexin-binding buffer for 15 min at RT in the dark. The acquisition was performed on a FACSCalibur cytometer (BD), and the data were analyzed with Flowing software (version 2.5).

[1] = test system: caspase activity in HeLa cells; assay: Caspase activity determination (FLICA, FAM-VAD-FMK), flow cytometry; details: HeLa, 5, 7 and 10 µM, 24 h
Protocol: Apoptosis induction was further determined by examining the effects of 11, 12 and 13 on caspase activation in HeLa cells. Caspase activity induction was determined with the use of the fluorescently labeled caspase inhibitor-FAM-VAD-FMK (a carboxyfluorescein derivative of valylalanylaspartic acid fluoromethyl ketone). The caspase inhibitor binds to active caspases inhibiting their enzymatic activity, thus allowing caspase activity quantification through determining the fluorescent intensity of the bound inhibitor. […] Increased caspase activation was shown by the increased fluorescence of the caspase inhibitor in the cell population, as indicated in Figure 6.
Caspase Activity Determination: Caspase activity was determined with the FLICA Apoptosis Detection Kit (Immunochemistry Technologies) according to the manufacturer’s instructions. The cells were treated with comp. 11, 12 and 13 (5, 7 and 10 µM) for 24 h, after which the cells were collected and suspended in a buffer containing the caspase inhibitor, i.e., a carboxyfluorescein-labeled fluoromethyl ketone peptide. The cells were subsequently incubated for 1 h at 37 °C under 5% CO2 and, next, they were washed with a washing buffer. The fluorescence intensity of fluorescein was determined by flow cytometry (BD FACSCalibur), and caspase activity was determined as the amount of fluorescence emitted from the caspase inhibitors bound to the caspases. The data were analyzed with Flowing software (version 2.5).

[2] = test system: HeLa (cervical cancer) cell line; assay: MTT cell viability assay, HeLa; details: for IC50: Homo sapiens, HeLa
Protocol: Compounds 8–24 were evaluated in vitro for their cytotoxic effect against three human cancer cell lines, i.e., HeLa (cervical cancer), HCT-116 (colon cancer) and MCF-7 (breast cancer), and the non-tumor cell line HaCaT using the MTT assay after 72 h of incubation. The results of tests are presented in Table 1 as IC50, indicating the concentration required for 50% inhibition of cell viability. Compounds 8–10 and 14–18 are not presented in the Table 1 because of their low potency (IC50 > 100 µM).
The cytotoxic activity of 11–13 was determined in a time-dependent manner with the MTT assay (Figure 3).
HeLa cells were treated with 11, 12 and 13 in the concentration range of 0–20 µM. […] After 48 h, the IC50 values for compounds 11, 12 and 13 were 6, 7 and 6 µM, respectively.
All chemicals, if not stated otherwise, were obtained from Sigma-Aldrich (St. Louis, MO, USA). The MCF-7, HeLa and HaCaT cell lines were purchased from Cell Lines Services (Eppelheim, Germany), and the HCT-116 cell line was purchased from ATCC (ATCC-No: CCL-247). The cells were cultured in Dulbecco’s modified Eagle’s medium (DMEM) supplemented with 10% fetal bovine serum, 2 mM glutamine, 100 units/mL of penicillin and 100 μg/mL of streptomycin. The cultures were maintained in a humidified atmosphere with 5% CO2 at 37 °C, in an incubator (Heraeus, HeraCell).
Cytotoxicity assay: Cell viability was determined using the MTT (3-(4,5-dimethylthiazol-2-yl)-2,5diphenyltetrazoliumbromide) assay. The cells were seeded in 96-well plates at a density of 5 × 10^3 cells/well and treated for 24, 48 and 72 h with the examined compounds in the concentration range 1–100 μM. Following treatment, MTT (0.5 mg/mL) was added to the medium, and the cells were further incubated for 2 h at 37 °C. the cells were lysed with DMSO, and the absorbance of the formazan solution was measured at 550 nm with a plate reader (Victor, 1420 multilabel counter). The experiment was performed in triplicate. The values are expressed as the mean ± SD of at least three independent experiments.

[3] = MTT assay, 72 h of incubation, read-out: IC50 HeLa
[4] = MTT, 24 h of treatment, 0–20 µM

| IC50 [2, 3] [µM] | IC50 ([2]; MTT, 24 h of treatment, 0–20 µM, read-out: IC50 HeLa after 24 h) [µM] | IC50 HeLa after 24 h [2, 4] | Compound | cells in the late stage of apoptosis (HeLa cells) | caspase activity induction [1] |
| --- | --- | --- | --- | --- | --- |
| 6 ± 0.1 | 18 | – | Cc1cc(S(=O)(=O)NC(=N)n2ccn(C)c2=S)c(SCc2cccc3ccccc23)cc1Cl [Compound 13, 4-Chloro-N-[imino(3-methyl-2-thioxo-2,3-dihydro-1H-imidazol-1-yl)methyl]-5-methyl-2-(naphthalen-1-ylmethylthio)benzenesulfonamide] | significant increase in cells in the late stage of apoptosis | induced caspase activity in HeLa cells in a dose-dependent manner |
| 6 ± 0.1 | – | not reached | Cc1cc(S(=O)(=O)NC(=N)n2ccn(C)c2=S)c(SCc2ccc(Cl)cc2)cc1Cl [Compound 11, 4-Chloro-N-[imino(3-methyl-2-thioxo-2,3-dihydro-1H-imidazol-1-yl)methyl]-5-methyl-2-(4-chlorobenzylthio)benzenesulfonamide] | significant increase in cells in the late stage of apoptosis | induced caspase activity in HeLa cells in a dose-dependent manner |
| 7 ± 0.3 | – | not reached | Cc1cc(S(=O)(=O)NC(=N)n2ccn(C)c2=S)c(SCc2cc3c(cc2Cl)OCO3)cc1Cl [Compound 12] | significant increase in cells in the late stage of apoptosis | induced caspase activity in HeLa cells in a dose-dependent manner |

— paper PMC10253812, “Novel 2-alkythio-4-chloro-N-[imino(heteroaryl)methyl]benzenesulfonamide Derivatives: Synthesis, Molecular Structure, Anticancer Activity and Metabolic Stability” (International Journal of Molecular Sciences, 2023)
